Consider 8 compounds from ChEMBL document CHEMBL1641477, “Shp2 protein tyrosine phosphatase inhibitor activity of estramustine phosphate and its triterpenoid analogs” (Bioorg Med Chem Lett, 2011).

In assay [1] the target is T1, Tyrosine-protein phosphatase non-receptor type 1 (Homo sapiens, UniProt P18031).
T1 sequence (P18031 whole entry): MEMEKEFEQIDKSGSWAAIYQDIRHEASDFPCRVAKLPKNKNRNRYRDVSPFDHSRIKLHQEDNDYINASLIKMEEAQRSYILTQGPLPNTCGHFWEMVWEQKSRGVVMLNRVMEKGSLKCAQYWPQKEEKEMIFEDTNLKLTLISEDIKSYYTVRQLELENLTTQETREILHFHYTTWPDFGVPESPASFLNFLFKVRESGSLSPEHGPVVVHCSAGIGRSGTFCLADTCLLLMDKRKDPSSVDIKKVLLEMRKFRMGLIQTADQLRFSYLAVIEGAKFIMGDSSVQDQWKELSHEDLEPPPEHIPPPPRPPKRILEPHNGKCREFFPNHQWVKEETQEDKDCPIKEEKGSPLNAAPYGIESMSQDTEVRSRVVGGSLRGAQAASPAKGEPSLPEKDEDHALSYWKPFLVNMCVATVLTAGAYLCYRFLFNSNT
Nature of the assay: Inhibition of recombinant PTP1B.

For assay [2], the target named is Tyrosine-protein phosphatase non-receptor type 6 (Homo sapiens, UniProt P29350). Put plainly: Inhibition of recombinant SHP1.
Assay [3] addresses T2, Tyrosine-protein phosphatase non-receptor type 11 (Homo sapiens, UniProt Q06124).
T2 sequence (Q06124 whole entry): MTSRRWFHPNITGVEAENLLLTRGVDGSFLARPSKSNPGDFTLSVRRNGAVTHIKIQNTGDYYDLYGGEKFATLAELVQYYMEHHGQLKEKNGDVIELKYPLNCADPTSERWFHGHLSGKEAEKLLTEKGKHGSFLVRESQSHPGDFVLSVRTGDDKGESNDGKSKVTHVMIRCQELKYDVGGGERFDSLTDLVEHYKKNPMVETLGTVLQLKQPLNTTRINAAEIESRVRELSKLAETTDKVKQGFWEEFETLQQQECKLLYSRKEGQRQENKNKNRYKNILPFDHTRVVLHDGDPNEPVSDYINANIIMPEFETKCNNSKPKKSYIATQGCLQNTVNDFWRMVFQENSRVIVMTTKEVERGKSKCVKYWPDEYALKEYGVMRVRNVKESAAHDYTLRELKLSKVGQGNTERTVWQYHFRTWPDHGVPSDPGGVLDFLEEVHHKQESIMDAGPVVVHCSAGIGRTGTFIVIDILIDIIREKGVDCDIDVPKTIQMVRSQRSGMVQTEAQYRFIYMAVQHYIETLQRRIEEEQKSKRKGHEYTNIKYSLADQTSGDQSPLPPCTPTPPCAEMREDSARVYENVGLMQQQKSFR
Nature of the assay: Inhibition of recombinant SHP2.

Assay [4] has as its target T3, Tyrosine-protein phosphatase non-receptor type 7 (Homo sapiens, UniProt P35236).
T3 sequence (P35236 whole entry): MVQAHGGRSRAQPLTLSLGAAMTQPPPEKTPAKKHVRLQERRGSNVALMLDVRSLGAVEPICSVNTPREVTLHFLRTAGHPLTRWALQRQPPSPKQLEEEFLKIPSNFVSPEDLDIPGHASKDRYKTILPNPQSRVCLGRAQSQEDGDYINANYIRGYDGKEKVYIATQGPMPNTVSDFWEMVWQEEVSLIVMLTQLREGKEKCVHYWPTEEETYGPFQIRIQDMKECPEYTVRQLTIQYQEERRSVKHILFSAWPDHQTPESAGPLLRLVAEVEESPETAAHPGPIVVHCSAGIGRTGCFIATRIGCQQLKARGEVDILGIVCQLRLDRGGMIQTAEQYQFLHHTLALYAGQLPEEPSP
Nature of the assay: Inhibition of recombinant HePTP.

For assay [5], the target named is T4, Tyrosine-protein phosphatase non-receptor type 11 (Homo sapiens) (UniProt Q06124).
T4 sequence (whole entry): T2 sequence (Q06124 whole entry)
Description: Mixed inhibition of recombinant SHP2 by Lineweaver-Burk plot analysis

The target of assay [6] is T4, Tyrosine-protein phosphatase non-receptor type 11 (Homo sapiens). The source holds these as a separate data set.
Description: Mixed inhibition of recombinant SHP2 at enzyme-substrate complex by Lineweaver-Burk plot analysis
The target in assay [7] is T2, Tyrosine-protein phosphatase non-receptor type 11. Put plainly: Binding affinity to recombinant SHP2 by surface plasmon […]. For orientation: In SPR one partner is held on a chip, and binding of the other changes the refractive index at the surface.

What is called IC50 is the concentration needed to halve the response being measured. A word on the Kd: it is the equilibrium constant for the complex coming apart.

Chain of Tyrosine-protein phosphatase non-receptor type 6 (P29350 whole entry): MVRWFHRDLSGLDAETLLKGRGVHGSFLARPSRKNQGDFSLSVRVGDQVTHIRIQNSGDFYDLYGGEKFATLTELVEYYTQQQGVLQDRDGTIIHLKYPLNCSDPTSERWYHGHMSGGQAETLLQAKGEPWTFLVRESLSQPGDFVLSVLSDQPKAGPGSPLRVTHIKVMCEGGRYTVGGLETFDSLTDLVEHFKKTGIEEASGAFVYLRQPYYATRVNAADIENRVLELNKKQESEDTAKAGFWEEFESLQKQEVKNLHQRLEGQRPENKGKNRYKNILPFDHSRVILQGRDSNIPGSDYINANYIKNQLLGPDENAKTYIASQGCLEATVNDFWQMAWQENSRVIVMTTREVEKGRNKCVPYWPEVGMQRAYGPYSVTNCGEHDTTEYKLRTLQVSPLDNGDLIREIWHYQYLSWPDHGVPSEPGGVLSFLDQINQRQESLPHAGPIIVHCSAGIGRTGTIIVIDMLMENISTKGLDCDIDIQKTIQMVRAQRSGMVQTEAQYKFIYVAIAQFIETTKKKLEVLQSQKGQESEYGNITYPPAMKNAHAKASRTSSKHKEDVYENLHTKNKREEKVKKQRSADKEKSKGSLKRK

As to `CC1=C(O)C(=O)C=C2C1=CC=C1[C@@]2(C)CC[C@@]2(C)[C@@H]3C[C@](C)(C(=O)O)CC[C@]3(C)CC[C@]12C` [CELASTROL], the IC50 in assay [1] came to 13.2 µM; in assay [2], 27.8 µM; in assay [3], 3.3 µM; in assay [4] it was 75.7 µM.

Regarding `CC1(C)[C@@H](O)CC[C@]2(C)[C@H]3C(=O)C=C4[C@@H]5C[C@@](C)(C(=O)O)CC[C@]5(C)CC[C@@]4(C)[C@]3(C)CC[C@@H]12` [ENOXOLONE], the IC50 in assay [2] was 65.4 µM; in assay [3], 9.6 µM; in assay [4] it was over 300 µM.

As for `C[C@]12CC[C@@H]3c4ccc(O)cc4CC[C@H]3[C@@H]1CC[C@@H]2OP(=O)(O)O` [ESTRADIOL PHOSPHATE], the IC50 in assay [1] was over 300 µM; in assay [2] it was over 300 µM; in assay [3] it was 19.9 µM; in assay [4], over 300 µM.

Consider `COc1ccc2c(c1)CC[C@@H]1[C@@H]2CC[C@@]2(C)[C@H]1CC[C@@]21CCNP(=O)(N(CCCl)CCCl)O1` (some centres not stated), for which the half-maximal inhibitory concentration (IC50) in assay [3] was over 300 µM.

In the case of `CC1=C(O)C(=O)C=C2C1=CC=C1[C@@]2(C)CC[C@@]2(C)[C@@H]3C[C@@H](C)C(=O)C[C@]3(C)CC[C@]12C` [TINGENONE], the IC50 in assay [3] was determined as 61.6 µM.

In the case of `C[C@]12CC[C@@H]3c4ccc(OC(=O)N(CCCl)CCCl)cc4CC[C@H]3[C@@H]1CC[C@@H]2OP(=O)(O)O` [ESTRAMUSTINE PHOSPHATE], the Kii in assay [5] was 10.8 µM. The IC50 worked out at 62.4 µM in assay [1], 40.4 µM in assay [2], 17.1 µM in assay [3] and 153 µM in assay [4]. For the same compound, the Kis in assay [6] amounted to 22.8 µM. For the same compound, the Kd in assay [7] is 8.4 µM.

Regarding `C[C@]12CC[C@@H]3c4ccc(O)cc4CC[C@H]3[C@@H]1CC[C@@H]2O` [ESTRADIOL], the IC50 in assay [3] is over 300 µM.

Regarding `C[C@]12CC[C@@H]3c4ccc(OC(=O)N(CCCl)CCCl)cc4CC[C@H]3[C@@H]1CC[C@@H]2O` [ESTRAMUSTINE], the IC50 in assay [3] was over 300 µM.
